Test results as given in patent publication US10391096B2, “Method for treating thrombotic disorders using quercetin-containing compositions” (Quercegen Pharmaceuticals LLC, priority 2011, dated 2019).

Tests used:
platelet aggregation = details: in vitro; cited from earlier work
D-dimer = D-dimer level in blood of hypertensive patients treated with quercetin; assay type: in vivo, humans
Description: As mentioned above, PDI plays a critical role in the initiation of the coagulation cascade. By blocking this critical enzyme activity, quercetin can prevent thrombus formation. The antithrombotic activity of quercetin can be evaluated in humans by measuring D-dimer levels in plasma samples from patients treated with quercetin. D-dimer, a small protein fragment present in the blood, is a fibrin degradation product. The level of D-dimer in the blood increases after a thrombotic event due to its release from blood clots via fibrinolysis. […] Hypertensive patients are prone to thrombotic events.

[1] = hypertensive patients; cited from earlier work

Compound: O=c1c(O)c(-c2ccc(O)c(O)c2)oc2cc(O)cc(O)c12 [Quercetin, quercetin]
- platelet aggregation (platelet aggregation): inhibit platelet aggregation
- level of D-dimer in blood (D-dimer): reduction in the level of D-dimer
- blood pressure [1]: reduce blood pressure
